Where two headings read alike, the source gives them in different places.
What was measured:
clinical [1] = conditions: human, in vivo, 16 mg
Description: In a single-dose, crossover study conducted to evaluate the potential for a drug-drug interaction between liquid Maalox and cilansetron, 12 male and 12-female subjects (aged 19-39 years) received single doses of cilansetron 16 mg alone and cilansetron 16 mg+Maalox in a crossover fashion under fasted conditions. Blood samples for measurement of plasma cilansetron pharmacokinetics were collected up to 24 hours postdose following each treatment.
The effect of concomitantly administered antacid (liquid Maalox) on the pharmacokinetics of cilansetron has been evaluated in a single-dose, crossover study in 24 healthy, male and female subjects, aged 19 to 39 years. Subjects received the following two treatments during each of the study periods in a crossover fashion: a single oral dose of cilansetron 16 mg tablet (reference treatment); a single oral dose of cilansetron 16 mg tablet+20 mL oral Maalox liquid administered every 4 hours (test treatment; 4 doses of Maalox in total; cilansetron was administered 5 minutes after the first dose of Maalox). Both cilansetron treatments were administered under fasted conditions.

[2] = system: diarrhea-predominant IBS subjects; assay type: in vivo, human; set-up: key to Daily stool consistency score, mean change from Baseline at end of treatment / Mean stool consistency score at end of treatment / Stool consistency, mean change from rerandomization Baseline: stool consistency on a seven-point daily diary scale
Description: (§1) Studies S24 1.3.OO6, S24 1.3.0 1 1, and S24 1.3.009 used the following efficacy measurements: • The subjects answered the following three questions with “yes” or “no” using a phone diary at the end of each week: • a) During the last week, did you experience adequate relief of your IBS symptoms, such as abdominal pain, abdominal discomfort, abnormal bowel habits? • b) During the last week, did you experience adequate relief of your abdominal pain and/or discomfort? • c) During the last week, did you experience adequate relief of your abnormal bowel habits? • The subjects rated the following symptoms using the phone diary at the end of each day: • abdominal pain/discomfort (five-point scale); • stool consistency (seven-point Bristol Stool Scale); • stool frequency (number of bowel movements each day); • urgency (five-point scale); • straining (yes or no); • feeling of incomplete defecation (yes or no); • bloating or feeling of abdominal distension (five-point scale). • In Studies S241 A006 and S241.3.009, subjects completed the IBS-QOL Survey at Baseline (Day 1) and at the end of treatment. In Study S24 1.3.0 1 1, subjects completed the IBS-QOL Survey at Baseline (Day 1), at the end of the three-month treatment period, and at the end of rerandomized treatment.
(§2) Other secondary efficacy parameters for all three studies included: • Responder rate for the weekly diary questions on adequate relief at each month, where a responder for a month (monthly responder) was defined as a subject who answered the weekly question with “yes” at least twice for that month. The responder rate was the percentage of responders within a treatment group. The all-month responder rate for the weekly diary questions on adequate relief was also evaluated, where an all-month responder was defined as a subject who answered the weekly question with “yes” at least twice for each month. The all-month responder rate was the percentage of all-month responders within a treatment group; • Adequate relief rate for the weekly diary questions was calculated for each subject as the number of weekly assessments with adequate relief (“yes”) divided by the total number of weekly assessments; • Percentage of subjects with adequate relief for the weekly diary questions at each week; • Daily diary questions regarding abdominal pain/discomfort (five-point scale), stool consistency (seven-point scale), stool frequency (number of bowel movements each day), straining (yes or no), urgency (five-point scale), feeling of incomplete evacuation (yes or no), and bloating or feeling of abdominal distention (five-point scale); • QOL data assessed by the IBS-QOL questionnaire; and • Question to determine the interruption of activities.

[3] = system: diarrhea-predominant IBS subjects; test: Study S241.3.011: IBS-QOL; assay type: in vivo, human; conditions: for Mean change in IBS-QoL subscale Body Image / Mean change in IBS-QoL subscale Dysphoria / Mean change in IBS-QoL subscale Food Avoidance / Mean change in IBS-QoL subscale Health Worry / Mean change in IBS-QoL subscale Interference with Activity / Mean change in IBS-QoL subscale Relationship / Mean change in IBS-QoL subscale Sexual / Mean change in IBS-QoL subscale Social Reaction / Mean change in IBS-QoL, Overall: RR (four-week rerandomization) period
Description: as §1, §2

clinical [4] = conditions: male, human, in vivo
Description: The single- and multiple-dose pharmacokinetics of cilansetron 8 mg administered intravenously have been studied in a randomized, double-blind, placebo controlled, parallel group study in 12 male subjects (10 subjects received cilansetron 8 mg and 2 received placebo, administered as a 30-minute infusion). […] Doses on pharmacokinetic days were administered under fasted conditions. […] Renal elimination was again observed to be negligible (≦1% of dose).

clinical [5] = conditions: both, human, in vivo, po, 16 mg
Description: In a randomized, double-blind, placebo-controlled, 2-way crossover study in 9 male and 9 female healthy subjects (ITT population, aged 21-39 years), subjects were randomized to receive 2 treatments (cilansetron 16 mg tablet and placebo) during the 2 treatment periods. During each treatment period, subjects received a single dose of their assigned treatment on the first day (Day 1), after which they received the same treatment TID for 4 days (Days 2-5). There was a 10-day washout period between treatment periods. Subjects were fasted for at least 2 hours before and following each dose, and heavy physical activity was restricted. Serial 12-lead ECGs was recorded up to 24 hours following dosing on Day 1 (single dose) and on the last day (Day 5) of each treatment period. Heart rate and ECG intervals (RR, PR, QRS, and QT) were measured electronically, but were manually verified and corrected if needed by the investigator. QT intervals were corrected (QTc) electronically for heart rate using the Bazett's correction. Mean and maximum QTc intervals were calculated over different time intervals postdose and were compared between treatments using an ANOVA accounting for sequence, gender, subject within sequence and gender, period, and treatment effects.

Cc1nccn1C[C@H]1CCc2c(c3cccc4c3n2CCC4)C1=O [Cilansetron, (R)-(−)-4,5,6,8,9,10-hexahydro-10-[(2-methyl-1H-imidazol-1-yl)methyl]-11H-pyrido-[3,2,1-jk]-carbazol-11-one]
AUC(0-inf) (clinical [1]; both): 264 ng·h/mL | AUC(0-t) (clinical [1]; both): 264 ng·h/mL | Cmax (clinical [1]; both): 102 ng/mL | Vd/F (clinical [1]; both): 237 L | half-life (clinical [1]; both): 2.39 h | AUC(0-inf) (clinical [1]; female): 361 ng·h/mL | AUC(0-t) (clinical [1]; female): 360 ng·h/mL | Cmax (clinical [1]; female): 137 ng/mL | Vd/F (clinical [1]; female): 202 L | half-life (clinical [1]; female): 2.97 h | AUC(0-inf) (clinical [1]; male): 159 ng·h/mL | AUC(0-t) (clinical [1]; male): 159 ng·h/mL | Cmax (clinical [1]; male): 63.1 ng/mL | Vd/F (clinical [1]; male): 276 L | half-life (clinical [1]; male): 1.75 h | Mean number of stools per day at end of treatment ([2]; 2 mg TID): 2.41 stools per day | Abdominal pain/discomfort, mean change from rerandomization Baseline ([2]; C/C): −0.09 | Bloating, mean change from rerandomization Baseline ([2]; C/C): −0.05 | Incomplete evacuation, mean change from Rerandomization Baseline ([2]; C/C): 0.01 | Stool consistency, mean change from rerandomization Baseline ([2]; C/C): −0.09 | Stools per day, mean change from rerandomization Baseline ([2]; C/C): −0.02 | Urgency, mean change from rerandomization Baseline ([2]; C/C): −0.05 | Abdominal pain/discomfort, mean change from rerandomization Baseline ([2]; C/P): 0.16 | Bloating, mean change from rerandomization Baseline ([2]; C/P): 0.16 | Incomplete evacuation, mean change from Rerandomization Baseline ([2]; C/P): 0.05 | Stool consistency, mean change from rerandomization Baseline ([2]; C/P): 0.55 | Stools per day, mean change from rerandomization Baseline ([2]; C/P): 0.22 | Urgency, mean change from rerandomization Baseline ([2]; C/P): 0.25 | Abdominal pain/discomfort, mean change from rerandomization Baseline ([2]; P/C): −0.08 | Bloating, mean change from rerandomization Baseline ([2]; P/C): −0.03 | Incomplete evacuation, mean change from Rerandomization Baseline ([2]; P/C): −0.02 | Stool consistency, mean change from rerandomization Baseline ([2]; P/C): −0.84 | Stools per day, mean change from rerandomization Baseline ([2]; P/C): −0.31 | Urgency, mean change from rerandomization Baseline ([2]; P/C): −0.27 | Median rate of urgency-free days ([2]; end of treatment): 0.25 | Median rate of pain-free days ([2]; end of treatment (last two weeks)): 0.15 | Bloating or abdominal distention score, mean change from Baseline at end of treatment ([2]; in vivo): −0.43 | Daily abdominal pain/discomfort score, mean change from Baseline at end of treatment ([2]; in vivo): −0.69 | Daily stool consistency score, mean change from Baseline at end of treatment ([2]; in vivo): −1.02 | Daily urgency score, mean change from Baseline at end of treatment ([2]; in vivo): −0.78 | Feeling of incomplete evacuation, mean change from Baseline at end of treatment ([2]; in vivo): −0.20 | Mean stool consistency score at end of treatment ([2]; in vivo): 4.28 | Mean straining, mean change from Baseline at end of treatment ([2]; in vivo): 0.05 | Stools per day, mean change from Baseline at end of treatment ([2]; in vivo): −0.91 | Median rate of pain-free days ([2]; three-month period): 0.22 | Median rate of urgency-free days ([2]; three-month period): 0.31 | Overall IBS-QOL score, mean change from rerandomization Baseline ([3]; C/C): 0.9 | Overall IBS-QOL score, mean change from rerandomization Baseline ([3]; C/P): −4.9 | Overall IBS-QOL score, mean change from rerandomization Baseline ([3]; P/C): 5.1 | Mean change in IBS-QoL subscale Body Image ([3]; C/C group): −0.8 | Mean change in IBS-QoL subscale Dysphoria ([3]; C/C group): +2.2 | Mean change in IBS-QoL subscale Food Avoidance ([3]; C/C group): +0.6 | Mean change in IBS-QoL subscale Health Worry ([3]; C/C group): +0.2 | Mean change in IBS-QoL subscale Interference with Activity ([3]; C/C group): +1.4 | Mean change in IBS-QoL subscale Relationship ([3]; C/C group): +1.7 | Mean change in IBS-QoL subscale Sexual ([3]; C/C group): −1.4 | Mean change in IBS-QoL subscale Social Reaction ([3]; C/C group): +0.3 | Mean change in IBS-QoL, Overall ([3]; C/C group): +0.9 | Mean change in IBS-QoL subscale Body Image ([3]; C/P group): −3.0 | Mean change in IBS-QoL subscale Dysphoria ([3]; C/P group): −6.0 | Mean change in IBS-QoL subscale Food Avoidance ([3]; C/P group): −4.7 | Mean change in IBS-QoL subscale Health Worry ([3]; C/P group): −1.0 | Mean change in IBS-QoL subscale Interference with Activity ([3]; C/P group): −6.4 | Mean change in IBS-QoL subscale Relationship ([3]; C/P group): −3.0 | Mean change in IBS-QoL subscale Sexual ([3]; C/P group): −3.5 | Mean change in IBS-QoL subscale Social Reaction ([3]; C/P group): −5.9 | Mean change in IBS-QoL, Overall ([3]; C/P group): −4.9 | Mean change in IBS-QoL subscale Body Image ([3]; P/C group): +5.0 | Mean change in IBS-QoL subscale Dysphoria ([3]; P/C group): +1.4 | Mean change in IBS-QoL subscale Food Avoidance ([3]; P/C group): +7.9 | Mean change in IBS-QoL subscale Health Worry ([3]; P/C group): +2.1 | Mean change in IBS-QoL subscale Interference with Activity ([3]; P/C group): +7.9 | Mean change in IBS-QoL subscale Relationship ([3]; P/C group): +1.4 | Mean change in IBS-QoL subscale Sexual ([3]; P/C group): +1.4 | Mean change in IBS-QoL subscale Social Reaction ([3]; P/C group): +3.8 | Mean change in IBS-QoL, Overall ([3]; P/C group): +5.1 | IBS-QOL body image, treatment difference ([3]; vs placebo): 6.60 | IBS-QOL dysphoria, treatment difference ([3]; vs placebo): 8.16 | IBS-QOL food avoidance, treatment difference ([3]; vs placebo): 9.64 | IBS-QOL health worry, treatment difference ([3]; vs placebo): 4.05 | IBS-QOL interference with activity, treatment difference ([3]; vs placebo): 10.57 | IBS-QOL overall score, treatment difference in mean change from Baseline at Endpoint ([3]; vs placebo): 7.53 | IBS-QOL relationships, treatment difference ([3]; vs placebo): 4.72 | IBS-QOL sexual, treatment difference ([3]; vs placebo): 5.93 | IBS-QOL social reaction, treatment difference ([3]; vs placebo): 5.53 | Intersubject % CV for AUC (clinical [4]): 31-34% | Intrasubject % CV (clinical [4]): 18% | Renal elimination (clinical [4]): ≤ 1 % of dose | % Dose (urine) (clinical [4]; iv): 0.44 (70) % | Linearity Ratio (clinical [4]; iv): 118% | DN-AUC (clinical [4]; iv, 8 mg): 22.8 (31) ng · h/mL | AUC (clinical [4]; iv, 8 mg, AUC): 182 ng·h/mL | clearance (clinical [4]; iv, 8 mg, CL): 792 mL/min | CL renal (clinical [4]; iv, 8 mg, CLr): 3.29 mL/min | clearance (clinical [4]; iv, 8 mg, Systemic plasma clearance): 800 mL/min | half-life (clinical [4]; iv, 8 mg, T½): 1.7 h | Tmax (clinical [5]): 3 h
